Reference: patent US20100016402A1, “UNIT DOSE FORMULATIONS OF KETOROLAC FOR INTRANASAL ADMINISTRATION” (Roxro Pharma, Inc., priority 2008, published 2010)
Counter-ions that a name gives are not always drawn. Each block holds one compound with its values, some of them ahead of it.

Experiments:
[1] = solubility of local anesthetic in ketorolac solution; assay type: physicochemical; details: 15% ketorolac, not re-dispersed by heating or adjusting the pH
[2] = solubility in water at different pH
[3] = degradation of ketorolac in solution; assay type: physicochemical; details: 1-keto analog proportional to amount of ketorolac and available oxygen
Text: The amount of 1-keto analog produced is generally proportional to the amount of ketorolac in solution and available oxygen (e.g., in the head space of the container, such as those described in U.S. patent application Ser. No. 12/404,250, filed on Mar. 13, 2009, entitled, “Device for Intranasal Administration,”).

precipitation in the presence of ketorolac ([1]; 6% benzocaine solution): precipitation was observed | precipitation in the presence of ketorolac ([1]; 10% benzocaine solution): precipitation was observed | solubility ([2]; low pH): soluble | solubility in water ([2]; physiological pH ranges of 4.5 to 7.2): low solubility
SMILES: CCOC(=O)c1ccc(N)cc1 [benzocaine]

stability in solution (degradation products) [3]: produces several degradation products
SMILES: O=C(c1ccccc1)c1ccc2n1CCC2C(=O)O (stereo not shown) [ketorolac, 5-benzoyl-2,3-dihydro-1H-pyrrolizine-1-carboxylic acid]

pH of the solution in water [2]: about 1.5 | solubility in water ([2]; water, pH not adjusted): soluble in water
SMILES: CCOC(=O)c1ccc(N)cc1 [benzocaine hydrochloride]
